In ChEMBL document CHEMBL1136991, “Novel potent BRAF inhibitors: toward 1 nM compounds through optimization of the central phenyl ring” (J Med Chem, 2009):

Legend:
[1] = biological target: Serine/threonine-protein kinase PAK 6 (Homo sapiens) (UniProt Q9NQU5); assay: Inhibition of PAK6 at 1 uM relative to control
[2] = Inhibition of CK2 at 1 uM relative to control
[3] = biological target: T1, Mitogen-activated protein kinase 15 (Homo sapiens) (UniProt Q8TD08); assay: Inhibition of ERK8 at 1 uM relative to control
T1 sequence (whole entry): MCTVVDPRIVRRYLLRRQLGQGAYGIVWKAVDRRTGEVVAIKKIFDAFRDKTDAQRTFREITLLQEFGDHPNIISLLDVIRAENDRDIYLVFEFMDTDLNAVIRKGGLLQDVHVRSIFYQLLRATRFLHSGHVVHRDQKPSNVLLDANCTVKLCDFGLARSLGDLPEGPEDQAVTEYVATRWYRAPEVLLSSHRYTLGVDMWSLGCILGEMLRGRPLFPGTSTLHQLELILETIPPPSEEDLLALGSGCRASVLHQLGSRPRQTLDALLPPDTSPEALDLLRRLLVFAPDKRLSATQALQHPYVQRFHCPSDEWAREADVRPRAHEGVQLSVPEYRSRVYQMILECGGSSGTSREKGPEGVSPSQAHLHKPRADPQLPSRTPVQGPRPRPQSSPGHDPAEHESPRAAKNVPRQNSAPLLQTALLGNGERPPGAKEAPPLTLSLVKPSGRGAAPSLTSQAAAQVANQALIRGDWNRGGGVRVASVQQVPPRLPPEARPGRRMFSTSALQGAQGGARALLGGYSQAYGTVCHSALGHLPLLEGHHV

[4] = biological target: Ribosomal protein S6 kinase beta-1 (Homo sapiens) (UniProt P23443); assay: Inhibition of S6K1 at 1 uM relative to control
Ribosomal protein S6 kinase beta-1 (Homo sapiens), sequence (P23443 whole entry, looked up): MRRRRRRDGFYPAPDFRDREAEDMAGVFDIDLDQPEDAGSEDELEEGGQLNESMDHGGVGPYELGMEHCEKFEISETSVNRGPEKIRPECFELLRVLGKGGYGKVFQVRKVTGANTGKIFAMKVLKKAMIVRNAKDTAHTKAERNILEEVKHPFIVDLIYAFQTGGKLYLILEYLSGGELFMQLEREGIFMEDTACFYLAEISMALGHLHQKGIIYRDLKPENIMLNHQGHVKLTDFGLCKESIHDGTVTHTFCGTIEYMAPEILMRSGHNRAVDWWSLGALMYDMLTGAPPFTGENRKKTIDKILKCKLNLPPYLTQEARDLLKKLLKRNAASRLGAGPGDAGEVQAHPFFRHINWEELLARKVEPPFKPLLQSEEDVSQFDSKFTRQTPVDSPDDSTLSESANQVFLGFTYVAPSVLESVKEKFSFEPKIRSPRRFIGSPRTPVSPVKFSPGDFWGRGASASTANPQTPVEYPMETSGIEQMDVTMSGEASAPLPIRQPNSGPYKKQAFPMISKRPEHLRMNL

[5] = biological target: Aurora kinase B (Homo sapiens) (UniProt Q96GD4); assay: Inhibition of Aurora B at 1 uM relative to control
Aurora kinase B (Homo sapiens), sequence (Q96GD4 whole entry): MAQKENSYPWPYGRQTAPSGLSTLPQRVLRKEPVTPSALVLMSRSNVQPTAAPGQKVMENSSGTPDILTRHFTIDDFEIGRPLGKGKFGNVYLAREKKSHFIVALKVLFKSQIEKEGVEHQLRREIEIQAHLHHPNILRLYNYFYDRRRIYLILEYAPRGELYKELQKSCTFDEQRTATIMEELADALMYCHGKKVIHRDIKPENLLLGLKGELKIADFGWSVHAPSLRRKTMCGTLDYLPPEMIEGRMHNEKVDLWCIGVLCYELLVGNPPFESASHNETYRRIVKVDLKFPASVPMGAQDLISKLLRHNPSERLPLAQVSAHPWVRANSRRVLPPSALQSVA

[6] = biological target: MAP kinase-activated protein kinase 3 (Homo sapiens) (UniProt Q16644); assay: Inhibition of MAPKAP-K3 at 1 uM relative to control
MAP kinase-activated protein kinase 3 (Homo sapiens), sequence (Q16644 whole entry, looked up): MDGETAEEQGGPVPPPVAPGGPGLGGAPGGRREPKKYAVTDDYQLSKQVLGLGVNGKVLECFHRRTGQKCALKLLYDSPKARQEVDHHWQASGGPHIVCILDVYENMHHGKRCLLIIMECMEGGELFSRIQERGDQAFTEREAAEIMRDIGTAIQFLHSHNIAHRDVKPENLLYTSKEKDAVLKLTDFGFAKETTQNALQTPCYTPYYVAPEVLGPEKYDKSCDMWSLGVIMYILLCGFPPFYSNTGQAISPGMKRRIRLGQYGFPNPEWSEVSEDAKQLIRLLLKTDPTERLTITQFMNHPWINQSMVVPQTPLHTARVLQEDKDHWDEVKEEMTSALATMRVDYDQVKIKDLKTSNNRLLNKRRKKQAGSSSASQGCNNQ

[7] = biological target: Serine/threonine-protein kinase PAK 5 (Homo sapiens) (UniProt Q9P286); assay: Inhibition of PAK5 at 1 uM relative to control
[8] = biological target: Serine/threonine-protein kinase Nek7 (Homo sapiens) (UniProt Q8TDX7); assay: Inhibition of NEK7 at 1 uM relative to control
Serine/threonine-protein kinase Nek7 (Homo sapiens), sequence (Q8TDX7 whole entry, looked up): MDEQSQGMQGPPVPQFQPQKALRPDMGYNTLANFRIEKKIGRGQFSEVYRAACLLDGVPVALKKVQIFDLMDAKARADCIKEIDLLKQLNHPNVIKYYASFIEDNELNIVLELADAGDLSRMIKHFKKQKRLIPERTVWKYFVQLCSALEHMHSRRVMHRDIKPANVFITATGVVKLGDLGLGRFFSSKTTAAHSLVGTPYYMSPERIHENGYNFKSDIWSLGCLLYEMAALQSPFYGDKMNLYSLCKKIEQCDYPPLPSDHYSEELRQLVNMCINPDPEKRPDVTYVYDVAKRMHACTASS

[9] = biological target: Serine/threonine-protein kinase PLK1 (Homo sapiens) (UniProt P53350); assay: Inhibition of PLK1 at 1 uM relative to control
[10] = biological target: T2, Protein kinase C zeta type (Homo sapiens) (UniProt Q05513); assay: Inhibition of PKCzeta at 1 uM relative to control
T2 sequence (whole entry): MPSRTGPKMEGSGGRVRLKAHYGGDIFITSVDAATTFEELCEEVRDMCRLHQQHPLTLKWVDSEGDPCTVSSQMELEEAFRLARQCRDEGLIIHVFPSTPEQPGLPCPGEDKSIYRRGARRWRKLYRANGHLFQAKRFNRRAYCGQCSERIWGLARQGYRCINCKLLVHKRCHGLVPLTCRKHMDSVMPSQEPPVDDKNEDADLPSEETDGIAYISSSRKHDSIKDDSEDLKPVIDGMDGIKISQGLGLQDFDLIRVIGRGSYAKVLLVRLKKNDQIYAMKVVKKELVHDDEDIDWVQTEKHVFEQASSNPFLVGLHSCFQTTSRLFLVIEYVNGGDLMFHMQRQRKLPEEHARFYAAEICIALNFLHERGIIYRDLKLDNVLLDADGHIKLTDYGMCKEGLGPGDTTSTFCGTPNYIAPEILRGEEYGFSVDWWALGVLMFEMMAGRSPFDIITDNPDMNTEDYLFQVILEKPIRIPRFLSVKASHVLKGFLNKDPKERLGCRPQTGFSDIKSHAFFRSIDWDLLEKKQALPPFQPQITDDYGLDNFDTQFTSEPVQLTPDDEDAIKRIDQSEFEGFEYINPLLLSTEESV

[11] = biological target: MAP/microtubule affinity-regulating kinase 3 (Homo sapiens) (UniProt P27448); assay: Inhibition of MARK3 at 1 uM relative to control
[12] = biological target: Mitogen-activated protein kinase 8 (Homo sapiens) (UniProt P45983); assay: Inhibition of JNK1 at 1 uM relative to control
[13] = biological target: Homeodomain-interacting protein kinase 3 (Homo sapiens) (UniProt Q9H422); assay: Inhibition of HIPK3 at 1 uM relative to control
Homeodomain-interacting protein kinase 3 (Homo sapiens), sequence (Q9H422 whole entry, looked up): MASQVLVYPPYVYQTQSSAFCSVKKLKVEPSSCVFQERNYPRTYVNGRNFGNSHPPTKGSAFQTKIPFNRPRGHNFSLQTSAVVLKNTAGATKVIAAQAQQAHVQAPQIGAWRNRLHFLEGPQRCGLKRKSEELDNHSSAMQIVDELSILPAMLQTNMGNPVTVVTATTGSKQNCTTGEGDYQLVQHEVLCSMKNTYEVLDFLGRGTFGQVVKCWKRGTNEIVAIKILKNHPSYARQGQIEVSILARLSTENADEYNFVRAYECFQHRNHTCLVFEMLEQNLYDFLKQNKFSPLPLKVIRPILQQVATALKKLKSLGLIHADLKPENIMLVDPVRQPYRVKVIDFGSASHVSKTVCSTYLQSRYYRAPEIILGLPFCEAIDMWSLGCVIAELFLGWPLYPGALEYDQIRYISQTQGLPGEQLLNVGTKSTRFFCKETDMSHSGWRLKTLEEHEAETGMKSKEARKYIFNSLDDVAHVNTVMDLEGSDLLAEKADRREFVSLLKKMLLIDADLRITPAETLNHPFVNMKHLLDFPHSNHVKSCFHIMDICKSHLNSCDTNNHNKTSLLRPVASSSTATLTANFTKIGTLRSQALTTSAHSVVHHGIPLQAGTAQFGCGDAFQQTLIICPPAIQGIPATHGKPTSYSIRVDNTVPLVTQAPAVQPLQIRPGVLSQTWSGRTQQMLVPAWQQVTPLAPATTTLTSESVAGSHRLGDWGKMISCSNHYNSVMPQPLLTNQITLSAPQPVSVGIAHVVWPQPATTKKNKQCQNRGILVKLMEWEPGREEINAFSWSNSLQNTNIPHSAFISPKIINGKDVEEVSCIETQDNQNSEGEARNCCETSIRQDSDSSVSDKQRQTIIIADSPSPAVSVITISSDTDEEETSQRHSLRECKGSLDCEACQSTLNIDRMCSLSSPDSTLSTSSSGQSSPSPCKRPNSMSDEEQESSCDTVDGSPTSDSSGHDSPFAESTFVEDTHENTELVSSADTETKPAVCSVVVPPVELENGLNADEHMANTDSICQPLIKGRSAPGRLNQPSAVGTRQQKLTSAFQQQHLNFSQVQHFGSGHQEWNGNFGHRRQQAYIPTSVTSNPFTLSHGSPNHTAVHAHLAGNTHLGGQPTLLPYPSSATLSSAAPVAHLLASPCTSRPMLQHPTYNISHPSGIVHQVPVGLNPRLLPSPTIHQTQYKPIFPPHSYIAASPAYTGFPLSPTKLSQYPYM

[14] = biological target: T3, Dual specificity tyrosine-phosphorylation-regulated kinase 2 (Homo sapiens) (UniProt Q92630); assay: Inhibition of DYRK2 at 1 uM relative to control
T3 sequence (whole entry): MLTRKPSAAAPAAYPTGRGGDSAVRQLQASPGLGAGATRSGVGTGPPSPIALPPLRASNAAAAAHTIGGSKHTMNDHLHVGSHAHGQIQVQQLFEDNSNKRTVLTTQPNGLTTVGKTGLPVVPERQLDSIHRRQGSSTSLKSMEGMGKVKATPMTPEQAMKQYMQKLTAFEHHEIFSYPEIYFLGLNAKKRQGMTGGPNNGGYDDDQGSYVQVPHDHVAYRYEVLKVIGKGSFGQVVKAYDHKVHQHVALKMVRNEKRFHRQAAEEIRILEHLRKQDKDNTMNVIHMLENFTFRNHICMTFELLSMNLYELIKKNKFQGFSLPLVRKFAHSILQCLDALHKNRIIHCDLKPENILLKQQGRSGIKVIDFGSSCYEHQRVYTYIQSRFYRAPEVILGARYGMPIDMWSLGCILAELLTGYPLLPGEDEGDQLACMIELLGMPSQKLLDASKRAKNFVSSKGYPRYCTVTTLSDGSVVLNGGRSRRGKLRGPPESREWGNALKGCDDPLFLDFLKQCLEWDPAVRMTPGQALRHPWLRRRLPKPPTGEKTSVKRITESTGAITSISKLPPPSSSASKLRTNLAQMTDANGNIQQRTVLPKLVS

[15] = biological target: Mitogen-activated protein kinase 11 (Homo sapiens) (UniProt Q15759); assay: Inhibition of p38beta at 1 uM relative to control
Mitogen-activated protein kinase 11 (Homo sapiens), sequence (Q15759 whole entry): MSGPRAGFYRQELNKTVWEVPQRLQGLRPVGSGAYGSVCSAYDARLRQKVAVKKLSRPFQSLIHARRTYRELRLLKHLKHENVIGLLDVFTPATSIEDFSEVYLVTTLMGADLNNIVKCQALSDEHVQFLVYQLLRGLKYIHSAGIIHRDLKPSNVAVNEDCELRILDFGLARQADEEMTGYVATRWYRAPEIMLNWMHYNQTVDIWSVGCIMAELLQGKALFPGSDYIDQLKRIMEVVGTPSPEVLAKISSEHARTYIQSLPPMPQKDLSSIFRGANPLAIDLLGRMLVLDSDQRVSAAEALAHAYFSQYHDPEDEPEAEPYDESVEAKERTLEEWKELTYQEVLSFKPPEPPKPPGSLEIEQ

[16] = biological target: Ribosomal protein S6 kinase alpha-3 (Homo sapiens) (UniProt P51812); assay: Inhibition of RSK2 at 1 uM relative to control
[17] = biological target: Glycogen synthase kinase-3 beta (Homo sapiens) (UniProt P49841); assay: Inhibition of GSK3-beta at 1 uM relative to control
Glycogen synthase kinase-3 beta (Homo sapiens), sequence (P49841 whole entry, looked up): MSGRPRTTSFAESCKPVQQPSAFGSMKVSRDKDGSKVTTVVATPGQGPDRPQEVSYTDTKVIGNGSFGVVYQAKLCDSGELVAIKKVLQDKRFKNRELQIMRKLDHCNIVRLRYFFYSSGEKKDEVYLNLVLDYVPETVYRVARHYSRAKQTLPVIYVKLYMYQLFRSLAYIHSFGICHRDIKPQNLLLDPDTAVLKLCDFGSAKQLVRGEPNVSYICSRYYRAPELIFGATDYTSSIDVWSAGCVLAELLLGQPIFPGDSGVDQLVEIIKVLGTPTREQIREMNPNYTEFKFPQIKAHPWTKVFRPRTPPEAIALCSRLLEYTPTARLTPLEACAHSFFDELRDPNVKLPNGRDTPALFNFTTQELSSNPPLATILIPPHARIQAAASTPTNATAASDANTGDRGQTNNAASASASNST

[18] = biological target: Protein kinase C alpha type (Homo sapiens) (UniProt P17252); assay: Inhibition of PKCalpha at 1 uM relative to control
[19] = biological target: Dual specificity tyrosine-phosphorylation-regulated kinase 1A (Homo sapiens) (UniProt Q13627); assay: Inhibition of DYRK1A at 1 uM relative to control

Serine/threonine-protein kinase PAK 6 (Homo sapiens), sequence (Q9NQU5 whole entry, looked up): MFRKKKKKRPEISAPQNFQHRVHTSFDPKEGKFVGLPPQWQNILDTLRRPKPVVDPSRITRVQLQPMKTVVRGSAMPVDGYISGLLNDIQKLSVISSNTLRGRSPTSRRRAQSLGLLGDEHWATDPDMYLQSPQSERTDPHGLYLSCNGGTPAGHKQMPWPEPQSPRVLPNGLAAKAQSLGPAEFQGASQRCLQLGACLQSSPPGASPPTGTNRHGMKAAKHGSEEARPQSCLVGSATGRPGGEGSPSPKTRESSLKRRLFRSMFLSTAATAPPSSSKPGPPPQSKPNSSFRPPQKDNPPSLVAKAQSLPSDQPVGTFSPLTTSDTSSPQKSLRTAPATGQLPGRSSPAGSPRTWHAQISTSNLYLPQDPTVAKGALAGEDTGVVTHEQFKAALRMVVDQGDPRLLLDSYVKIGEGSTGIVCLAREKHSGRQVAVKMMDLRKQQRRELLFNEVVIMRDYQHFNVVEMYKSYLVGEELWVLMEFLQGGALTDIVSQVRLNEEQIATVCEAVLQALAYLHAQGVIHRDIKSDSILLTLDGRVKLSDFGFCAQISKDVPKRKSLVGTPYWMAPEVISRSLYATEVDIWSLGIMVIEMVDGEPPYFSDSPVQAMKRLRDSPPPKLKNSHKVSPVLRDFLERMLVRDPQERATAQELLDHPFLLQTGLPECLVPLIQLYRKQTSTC

Row | Structure (SMILES) | residual activity [1] [%] | residual activity [2] [%] | residual activity [3] [%] | residual activity [4] [%] | residual activity [5] [%] | residual activity [6] [%] | residual activity [7] [%] | residual activity [8] [%] | residual activity [9] [%] | residual activity [10] [%] | residual activity [11] [%] | residual activity [12] [%] | residual activity [13] [%] | residual activity [14] [%] | residual activity [15] [%] | residual activity [16] [%] | residual activity [17] [%] | residual activity [18] [%] | residual activity [19] [%]
1 | O=C(Nc1cc(C(F)(F)F)ccc1F)Nc1ccc(Oc2ccnc3[nH]c(=O)[nH]c23)c2ccccc12 | 100 | 100 | 100 | 75 | < 25 | 100 | 100 | 100 | 100 | 75 | 75 | 75 | 100 | 100 | < 25 | 100 | 75 | 75 | 100
2 | CSc1cc(Oc2ccnc3[nH]c(=O)[nH]c23)ccc1NC(=O)Nc1cccc(C(F)(F)F)c1 | 100 | 100 | 100 | 100 | < 25 | 100 | 75 | 100 | 100 | 75 | 75 | 100 | 100 | 100 | < 25 | 100 | 100 | 75 | 100
3 | CC(C)(C)c1cccc(NC(=O)Nc2ccc(Oc3ccnc4[nH]c(=O)[nH]c34)c3ccccc23)c1 | 75 | 100 | < 25 | 100 | 50 | 100 | 75 | 75 | 75 | 75 | 100 | 75 | 100 | 100 | < 25 | 75 | 75 | 75 | 100
